Source: ChEMBL document CHEMBL2440046, “Anabaseine analogues as modulators of nicotinic acetylcholine receptor” (ACS Med Chem Lett, 2013)

Assays:
[1] = biological target: Neuronal acetylcholine receptor; alpha4/beta2 (Rattus norvegicus, UniProt P09483+P12390); assay: Displacement of [3H]-cytisine from Sprague-Dawley rat brain alpha4beta2 nAChR after 4 hrs by liquid scintillation counting analysis
[2] = biological target: Neuronal acetylcholine receptor subunit alpha-7 (Rattus norvegicus, UniProt Q05941); assay: Displacement of [125I]-alpha-bungarotoxin from Sprague-Dawley rat brain alpha7 nAChR after 3 hrs by liquid scintillation counting analysis
Chain of Neuronal acetylcholine receptor subunit alpha-7 (Q05941 whole entry): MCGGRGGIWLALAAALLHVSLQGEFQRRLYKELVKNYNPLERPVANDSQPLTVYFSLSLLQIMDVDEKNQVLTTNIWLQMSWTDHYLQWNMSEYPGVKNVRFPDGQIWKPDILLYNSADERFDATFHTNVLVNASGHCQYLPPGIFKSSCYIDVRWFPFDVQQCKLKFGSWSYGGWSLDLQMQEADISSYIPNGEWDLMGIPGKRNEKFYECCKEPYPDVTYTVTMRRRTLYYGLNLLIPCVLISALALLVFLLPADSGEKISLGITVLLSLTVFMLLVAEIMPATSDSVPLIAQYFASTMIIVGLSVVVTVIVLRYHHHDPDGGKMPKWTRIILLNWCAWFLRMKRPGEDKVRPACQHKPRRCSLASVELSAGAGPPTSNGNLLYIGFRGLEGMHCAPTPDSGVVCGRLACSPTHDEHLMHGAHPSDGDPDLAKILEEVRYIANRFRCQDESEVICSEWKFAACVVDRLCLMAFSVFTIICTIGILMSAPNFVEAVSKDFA

Chain of Neuronal acetylcholine receptor; alpha4/beta2 (P09483 whole entry): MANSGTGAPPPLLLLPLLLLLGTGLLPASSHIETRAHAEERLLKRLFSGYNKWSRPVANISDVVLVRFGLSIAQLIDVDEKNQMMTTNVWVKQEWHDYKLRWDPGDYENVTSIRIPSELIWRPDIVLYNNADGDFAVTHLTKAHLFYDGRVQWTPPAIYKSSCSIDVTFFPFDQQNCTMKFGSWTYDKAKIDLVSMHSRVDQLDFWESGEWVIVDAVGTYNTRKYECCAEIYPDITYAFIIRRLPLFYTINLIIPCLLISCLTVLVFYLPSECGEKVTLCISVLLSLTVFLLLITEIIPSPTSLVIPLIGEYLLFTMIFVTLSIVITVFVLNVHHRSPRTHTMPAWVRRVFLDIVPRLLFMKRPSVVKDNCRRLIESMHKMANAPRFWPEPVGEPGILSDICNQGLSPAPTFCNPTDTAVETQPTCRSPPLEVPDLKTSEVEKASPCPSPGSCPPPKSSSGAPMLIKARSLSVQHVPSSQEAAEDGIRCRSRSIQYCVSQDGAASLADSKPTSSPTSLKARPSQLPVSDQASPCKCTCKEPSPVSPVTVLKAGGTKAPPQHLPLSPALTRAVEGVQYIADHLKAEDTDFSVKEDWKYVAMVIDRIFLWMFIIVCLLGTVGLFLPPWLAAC
Chain of Neuronal acetylcholine receptor; alpha4/beta2 (P12390 whole entry): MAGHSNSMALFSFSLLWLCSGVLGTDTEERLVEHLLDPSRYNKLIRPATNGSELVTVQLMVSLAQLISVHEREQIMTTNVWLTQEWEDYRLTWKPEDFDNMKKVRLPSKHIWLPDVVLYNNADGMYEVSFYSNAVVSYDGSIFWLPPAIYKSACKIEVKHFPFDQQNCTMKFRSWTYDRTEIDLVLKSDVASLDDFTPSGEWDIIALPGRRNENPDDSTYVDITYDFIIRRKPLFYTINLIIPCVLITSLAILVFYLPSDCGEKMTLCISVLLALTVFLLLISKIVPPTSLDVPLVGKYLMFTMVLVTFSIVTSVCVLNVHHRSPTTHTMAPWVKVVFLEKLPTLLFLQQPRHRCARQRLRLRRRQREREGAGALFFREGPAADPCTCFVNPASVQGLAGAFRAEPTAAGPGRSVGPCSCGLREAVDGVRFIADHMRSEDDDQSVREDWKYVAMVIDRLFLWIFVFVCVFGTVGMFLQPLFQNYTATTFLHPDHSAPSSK

With `Nc1ccc(CC2C(c3cccnc3)=N[C@H]3CC[C@@H]2C3)cc1` (stereo partly drawn) the Ki [1] was 34.1 nM and the Ki [2] was 3.43 nM.

With `COc1ccc(CC2C(c3cccnc3)=N[C@H]3CC[C@@H]2C3)c(OC)c1` (stereo partly drawn) the Ki [1] was 219 nM and the Ki [2] was 16.4 nM.

In the case of `Oc1ccc(CC2C(c3cccnc3)=N[C@H]3CC[C@@H]2C3)cc1` (stereo partly drawn), the Ki [1] is reported as 72.5 nM and the Ki [2] is reported as 34.1 nM.

In the case of `COc1ccc(CC2C(c3cccnc3)=N[C@@H]3CC[C@H]2C3)c(OC)c1` (stereo partly drawn), the Ki [1] is reported as 347 nM and the Ki [2] is reported as 4400 nM.
